The record followed here is patent US11878059B2, “Sonodynamic therapy” (UNIVERSITY OF ULSTER, priority 2017, dated 2024).

In data set [1] the test system is BxPc-3. The experiment in a line: MTT cytotoxicity of Biotin-Gem and Biotin-Gem-RB in BxPC-3 cells. In kind it is cell-based, human. Particulars: 48 h incubation. As for the experimental part: To ensure the antimetabolite efficacy of Biotin-Gem and Biotin-Gem-RB were unaffected by chemical modification, the cytotoxicity of the conjugates was determined in the human pancreatic adenocarcinoma cell line BxPc-3. […] These cells were seeded into 96 well plates at a density of 5000 cells per well. The plates were then incubated for 24 hours followed by the addition of 100 uL of media spiked with either Gem, Biotin-Gem or Biotin-Gem-RB. The concentrations used for Biotin-Gem were […] while for Biotin-Gem-RB, concentrations of 0.01 μM, 0.05 μM, 0.1 μM, 0.5 μM, 1 μM, 5 μM and 10 μM were investigated. Corresponding concentrations of Gem were used in each case. The cells were then further incubated for 48 hours before cell viability was determined using an MTT assay.

The test system of another data set is Panc-1. Nature of the data set: MTT assay biotin-GEM-RB vs gemcitabine hydrochloride, Panc-1. It is filed as cell-based, human. On the procedure: (§1) Human primary pancreatic adenocarcinoma cell lines BxPc-3, Panc-1 and Mia-PaCa-2 were maintained in RPMI 1640 medium which was supplemented with 100 U/mL penicillin, […] streptomycin, and 10% fetal bovine serum (FBS) and Dulbecco's Modified Eagle's Medium (DMEM) containing 1 g/L glucose and supplemented with 100 U/mL penicillin, […] streptomycin, and 10% fetal bovine serum (FBS) respectively in a humidified 5% CO2 atmosphere at 37° C. These cells were seeded into 96 well plates at a density of 5000 cells per well. The plates were then incubated for 24 hours followed by the addition of 100 μL of media spiked with Gem or Biotin-Gem-RB at concentrations ranging from 0.001-1000 μM. The cells were then further incubated for 48 hours before cell viability was determined by an MTT assay.

Data set [2] relates to BxPc-3. Nature of the data set: MTT assay biotin-GEM-RB vs gemcitabine hydrochloride, BxPc-3. In kind it is cell-based, human. Particulars: BxPc-3, 0-1000 μM, 48 h. As for the experimental part: as §1
(In general: Tetrazolium dyes change colour on reduction, which living cells bring about.)

The next data set concerns Mia-PaCa-2. The experiment in a line: MTT assay biotin-GEM-RB vs gemcitabine hydrochloride, Mia-PaCa-2. It is filed as cell-based, human. Particulars: Mia-PaCa-2, 0-1000 μM, 48 h. On the procedure:
as §1

Another data set concerns MCF-7 cells. The experiment in a line: Colony forming assay in MCF-7 cells. In kind it is cell-based, human. Particulars: +US (1 MHz, 30 s, 3 Wcm^−2); PTX 1 nM, Dox 10 nM, RB 10 nM, 3 hours. As for the experimental part: FIG. 16 is a plot showing % survival fraction from a MCF-7 colony forming assay. Cells following treatment with PTX/Dox/RB alone (Drug combo) or following treatment with ultrasound (Drug Combo+US). After treatment cells were incubated for 8 days followed by fixation and staining. Crystal violet staining was quantified via Image J.
In this study, the concentration of each individual drug used was intentionally sub-lethal, so that any benefit obtained by the combination treatment could easily be identified. In addition, as the action of ultrasound can influence the cellular uptake of drugs as a result of sonoporation, cells treated with Dox or PTX were also exposed to ultrasound, to control for any potential ultrasound mediated effects on cell viability as a result of sonoporation. Following treatment, cell viability was determined using a colony forming assay.
MCF-7 cells were seeded (5×10^3) in a 96 well plate, 24 hours later cells were treated with free drug as a single treatment of PTX (1 nM), Dox (10 nM), RB (10 nM) or combination treatment for 3 hours followed by media replacement. Selected wells were treated with ultrasound delivered using a Sonidel SP100 sonoporator (1 MHz, 30 seconds, 3 Wcm^−2, duty cycle=50%, and PRF=100 Hz). The following day cells were pooled from 2 wells and seeded in a 6 well plate. Plates were placed in an incubator for 7 days. Media was removed from wells, fixation/staining solution was added at room temperature for 20 minutes. Fixative/staining solution contained: 0.5 g crystal violet (0.05%), 27 ml 37% formaldehyde, 100 ml 10×PBS (X1), 10 mL methanol (1%) and 863 mL of distilled water. Solution was removed and washed under running water. Pictures were taking using a high-resolution camera and colony formation was analysed via Image J.

Data set [3] can be described thus: Body weight of Mia-PaCa-2 tumour bearing mice (FIG. 11b). In kind it is in vivo, SCID mice. Particulars: clinical dose 120 mg/Kg I.P., day 6. As for the experimental part: The microbubble suspension (6.86×10^7±1.99×10^6 MB) was delivered as a 100 uL I.V injection (PTX—2.44±0.37 mg/Kg, GEM—0.5±0.04 mg/Kg, RB—1.85±0.14 mg/Kg). Gemcitabine hydrochloride was dissolved in sterile PBS and administered as a 100 uL I.P injection (120 mg/Kg). Ultrasound treatment was delivered for 3.5 minutes at frequency of 1 MHz, an ultrasound power density of 3.5 W/cm^2 and a duty cycle of 30% immediately after injection and 30 minutes following. Error bars represent±the standard error.
Mia-Paca-2 cells were maintained in DMEM medium and BxPc-3 cells were maintained in RPMI 1640 both supplemented with 100 U/mL penicillin, […] streptomycin, and 10% fetal bovine serum (FBS) in a humidified 5% CO2 atmosphere at 37° C. Cells (5×10^6) were re-suspended in Matrigel® and implanted subcutaneously into the rear dorsum of SCID (C.B-17/IcrHan®Hsd-Prkdcscid) mice. Tumours reached treatable size within 3 weeks. Tumour measurements were taken daily using callipers. Once the tumours had reached an average volume of 150 mm^3 animals were randomly assigned into treatment groups. Animals were anaesthetised by intraperitoneal injection of hypnorm:hypnovel:ice cold sterile water for injection (1:2:1). […] Tumour growth was monitored daily throughout the course of the treatment.

With `Nc1ccn([C@@H]2O[C@H](COC(=O)OCCNC(=O)CCCCC3SCC4NC(=O)NC43)[C@@H](O)C2(F)F)c(=O)n1` (stereo partly drawn) [Biotin-Gem, (2R,3R,5R)-5-(4-amino-2-oxopyrimidin-1(2H)-yl)-4,4-difluoro-3 hydroxytetrahydrofuran-2-yl)methyl (2-(5-(2-oxohexahydro-1H-thieno[3,4-d]imidazol-4-yl)pentanamido)ethyl) carbonate], the “efficacy (cell viability, MTT) compared to Gemcitabine” value in the data set on BxPc-3 [1] (0-100 μM) is “no statistically significant difference in efficacy”.
Consider `Nc1ccn([C@@H]2O[C@H](COC(=O)CCCCCCC(=O)NCCN(CCNC(=O)CCCCCCC(=O)NCCOC(=O)c3c(Cl)c(Cl)c(Cl)c(Cl)c3-c3c4cc(I)c(=O)c(I)c-4oc4c(I)c(O)c(I)cc34)CCNC(=O)CCCCC3SCC4NC(=O)NC43)[C@@H](O)C2(F)F)c(=O)n1` (stereo partly drawn) [Biotin-Gem-RB, ((2R,3R, 5R)-5-(4-amino-2-oxopyrimidin-1 (2H)-yl)-4,4-difluoro-3-hydroxytetrahydrofuran-2-yl)methyl 4,11,19-trioxo-15-(2-(5-(2-oxohexahydro-1H-thieno[3,4-d]imidazol-4-yl)pentanamido)ethyl)-1-((2,3,4,5-tetrachloro-6-(6-hydroxy-2,4,5,7-tetraiodo-3-oxo-3H-xanthen-9-yl)benzoyl)oxy)-3,12,15,18-tetraazahexacosan-26-oate], for which the “efficacy vs gemcitabine HCl (MTT)” value in the data set with Panc-1 (Panc-1, 0-1000 μM, 48 h) is “no decrease in efficacy”; in the data set on Panc-1 (Panc-1, above 10 μM), “significant increase in efficacy”; in the data set with BxPc-3 [2], “no decrease in efficacy”; in the data set on Mia-PaCa-2, “no decrease in efficacy”. Besides, the “efficacy (cell viability, MTT) compared to Gemcitabine” value in the data set on BxPc-3 [1] (0.01-10 μM) is “no statistically significant difference in efficacy”.
As for `COc1cccc2c1C(=O)c1c(O)c3c(c(O)c1C2=O)C[C@@](O)(C(=O)CO)C[C@@H]3O[C@H]1C[C@H](N)[C@H](O)[C@H](C)O1` [Dox, doxorubicin], the “reduction of colony number compared to untreated cells” value in the data set with MCF-7 cells is given as 29.3%.
Still for that read-out and setting: as for `CC(=O)O[C@H]1C(=O)[C@@]2(C)[C@H]([C@H](OC(=O)c3ccccc3)[C@]3(O)C[C@H](OC(=O)[C@H](O)[C@@H](NC(=O)c4ccccc4)c4ccccc4)C(C)=C1C3(C)C)[C@]1(OC(C)=O)CO[C@@H]1C[C@@H]2O` [PTX, paclitaxel], the figure is 7.3%.
As for `O=C1OC2(c3cc(I)c(O)c(I)c3Oc3c2cc(I)c(O)c3I)c2c(Cl)c(Cl)c(Cl)c(Cl)c21` [RB, Rose Bengal], in the data set with MCF-7 cells, the “reduction of colony number compared to untreated cells” value turned out to be 18.8%.
On to `Nc1ccn([C@@H]2O[C@H](CO)[C@@H](O)C2(F)F)c(=O)n1` [gemcitabine], for which the “decrease in body weight” value in data set [3] was 12%.
